According to the supplement of paper PMC10307832:

Key:
Assay in all cases: relative viability (nuclei count vs DMSO), 5 days (fraction); higher = more cells survive
[1] = compound: C1=CC=C(C(=C1)C2=CC=C(C=C2)C3=CSC4=C3C(=C(C(=O)N4)C#N)O)O + Cc1cc(Nc2cc(N3CCN(C)CC3)nc(Sc3ccc(NC(=O)C4CC4)cc3)n2)n[nH]1 [Tozasertib] (partner 0.1 µM)
In short: (§1)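 Relative viability divides the nuclei count in treated wells by that in vehicle wells. Lung cancer cell lines were seeded in 1536-well plates, dosed by pin tool the next day, and fixed and stained after 5 days in one step with final 0.05% Triton X-100, 1% formaldehyde and 1 ug/ml Hoechst. Dosing was a single drug or a fixed anchor-drug dose plus five library-drug doses (not always all listed) in √10 steps, and values are medians of duplicate plates imaged at 4×.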

[2] = compound: C1=CC=C(C(=C1)C2=CC=C(C=C2)C3=CSC4=C3C(=C(C(=O)N4)C#N)O)O + O=C(c1cc(Cc2n[nH]c(=O)c3ccccc23)ccc1F)N1CCN(C(=O)C2CC2)CC1 [Olaparib] (partner 8 µM)
In short: as §1

[3] = compound: CC1=CN2C(=O)C=C(N=C2C(=C1)C(C)NC3=CC=CC=C3)N4CCOCC4 [TGX 221] + N=C(N)NC(=N)NCCc1ccccc1 [Phenformin] (partner 250 µM)
In short: as §1

[4] = compound: CC1=CN2C(=O)C=C(N=C2C(=C1)C(C)NC3=CC=CC=C3)N4CCOCC4 [TGX 221] + C[C@]1(O)C[C@@H](c2nc(-c3ccc4ccc(-c5ccccc5)nc4c3)c3c(N)nccn32)C1 [Linsitinib] (partner 1 µM)
In short: as §1

Cell Line | relative viability ([1]; first compound 0.08 µM) | relative viability ([1]; first compound 0.253 µM) | relative viability ([1]; first compound 0.8 µM) | relative viability ([1]; first compound 2.53 µM) | relative viability ([1]; first compound 8 µM) | relative viability ([2]; first compound 0.08 µM) | relative viability ([2]; first compound 0.253 µM) | relative viability ([2]; first compound 0.8 µM) | relative viability ([2]; first compound 2.53 µM) | relative viability ([2]; first compound 8 µM) | relative viability ([3]; first compound 0.08 µM) | relative viability ([3]; first compound 0.253 µM) | relative viability ([3]; first compound 0.8 µM) | relative viability ([3]; first compound 2.53 µM) | relative viability ([3]; first compound 8 µM) | relative viability ([4]; first compound 0.08 µM) | relative viability ([4]; first compound 0.253 µM) | relative viability ([4]; first compound 0.8 µM) | relative viability ([4]; first compound 2.53 µM) | relative viability ([4]; first compound 8 µM)
NCI-H3122 | 0.355 | 0.451 | 0.451 | 0.507 | 0.419 | 0.715 | 0.675 | 0.573 | 0.645 | 0.45 | 0.366 | 0.386 | 0.396 | 0.363 | 0.366 | 1.01 | 1.05 | 1 | 1.02 | 0.986
PC-3 [JPC-3] | 0.606 | 0.401 | 0.928 | 0.876 | 0.716 | 1.11 | 1.37 | 1.15 | 1.23 | 1.24 | 0.463 | 0.459 | 0.469 | 0.47 | 0.477 | 0.963 | 0.973 | 0.997 | 0.922 | 0.918
PC-14 | 0.63 | 0.753 | 0.542 | 0.556 | 0.436 | 0.352 | 0.261 | 0.252 | 0.255 | 0.28 | 0.502 | 0.543 | 0.556 | 0.638 | 0.667 | 0.95 | 0.866 | 0.898 | 0.904 | 0.874
RERF-LC-KJ | 0.488 | 0.474 | 0.52 | 0.527 | 0.463 | 0.956 | 1.03 | 0.963 | 1.02 | 0.8 | 0.439 | 0.434 | 0.398 | 0.377 | 0.326 | 0.803 | 0.845 | 0.852 | 0.721 | 0.747
SK-LU-1 | 0.319 | 0.265 | 0.293 | 0.379 | 0.306 | 0.465 | 0.431 | 0.435 | 0.608 | 0.408 | 0.542 | 0.502 | 0.498 | 0.491 | 0.477 | 0.96 | 0.904 | 0.922 | 1.06 | 0.858
SK-MES-1 | 0.842 | 1.07 | 0.942 | 1.01 | 0.923 | 0.863 | 0.816 | 0.858 | 0.651 | 0.611 | 0.71 | 0.66 | 0.706 | 0.719 | 0.574 | 1.05 | 1.03 | 1.03 | 0.913 | 0.573
SW 1573 | 0.175 | 0.205 | 0.203 | 0.152 | 0.199 | 0.51 | 0.464 | 0.502 | 0.439 | 0.384 | 0.325 | 0.296 | 0.409 | 0.322 | 0.369 | 0.686 | 0.747 | 0.685 | 0.768 | 0.544
UMC-11 | 0.203 | 0.227 | 0.218 | 0.321 | 0.219 | – | 0.396 | 0.435 | 0.425 | 0.417 | 0.322 | 0.288 | 0.302 | 0.349 | 0.324 | 0.966 | 0.979 | 1.13 | 0.987 | 1.04
